Reference: patent publication US8217035B2, “Pyrimidine derivatives used as PI-3-kinase inhibitors” (Novartis AG, priority 2006, dated 2012)
pEC50, pIC50: −log10 of the molar value. Like-named read-outs stand apart in the source and are kept apart here.

What was measured:
[1] = system: A2780 ovarian cancer cells; assay: Cellular proliferation in A2780 cells, Cell Titer Glo (Biological Method 4); assay type: cell-based; conditions: Homo sapiens
Protocol: In addition, many of the compounds of Table 1 were tested to determine their inhibitory activity in a cellular proliferation assay according to Biological Method 4.
The ability of the compounds of the invention to inhibit cellular proliferation were determined by using Cell Titer Glo, a commercially available assay from Promega Corporation. A2780 ovarian cancer cells were seeded in TC treated 96-well plates at a density of 1,000 per well in DMEM, 10% FBS, 1% Sodium Pyruvate, and 1% Penicillin Streptomycin for a minimum of 2 hrs prior to addition of compound. For each concentration of test compound, 2 μl (500×) aliquots of compound or 100% DMSO diluted in 500 μl of culture medium for 2× concentration then diluted 1× on the Cells. Cells were incubated for 72 hrs at 37° C., 5% CO2. After the 72 hour incubation, Cell Titer Glo reagent is added to determine number of viable cells remaining after exposure to the compound, and the EC50 value was calculated. The assay was performed according to the manufacturer's instruction (Promega Corporation, Madison, Wis. USA). Each experimental condition was performed in duplicate.

PI3 kinase alpha = PI3 kinase alpha (Homo sapiens, UniProt P42336); assay: PI3K ATP depletion assay (Biological Method 1, Assay 3; KinaseGlo luminescence); assay type: biochemical; conditions: ATP depletion assay, read-out: PI3 Kinase Alpha, IC50
PI3 kinase alpha, sequence (P42336 whole entry): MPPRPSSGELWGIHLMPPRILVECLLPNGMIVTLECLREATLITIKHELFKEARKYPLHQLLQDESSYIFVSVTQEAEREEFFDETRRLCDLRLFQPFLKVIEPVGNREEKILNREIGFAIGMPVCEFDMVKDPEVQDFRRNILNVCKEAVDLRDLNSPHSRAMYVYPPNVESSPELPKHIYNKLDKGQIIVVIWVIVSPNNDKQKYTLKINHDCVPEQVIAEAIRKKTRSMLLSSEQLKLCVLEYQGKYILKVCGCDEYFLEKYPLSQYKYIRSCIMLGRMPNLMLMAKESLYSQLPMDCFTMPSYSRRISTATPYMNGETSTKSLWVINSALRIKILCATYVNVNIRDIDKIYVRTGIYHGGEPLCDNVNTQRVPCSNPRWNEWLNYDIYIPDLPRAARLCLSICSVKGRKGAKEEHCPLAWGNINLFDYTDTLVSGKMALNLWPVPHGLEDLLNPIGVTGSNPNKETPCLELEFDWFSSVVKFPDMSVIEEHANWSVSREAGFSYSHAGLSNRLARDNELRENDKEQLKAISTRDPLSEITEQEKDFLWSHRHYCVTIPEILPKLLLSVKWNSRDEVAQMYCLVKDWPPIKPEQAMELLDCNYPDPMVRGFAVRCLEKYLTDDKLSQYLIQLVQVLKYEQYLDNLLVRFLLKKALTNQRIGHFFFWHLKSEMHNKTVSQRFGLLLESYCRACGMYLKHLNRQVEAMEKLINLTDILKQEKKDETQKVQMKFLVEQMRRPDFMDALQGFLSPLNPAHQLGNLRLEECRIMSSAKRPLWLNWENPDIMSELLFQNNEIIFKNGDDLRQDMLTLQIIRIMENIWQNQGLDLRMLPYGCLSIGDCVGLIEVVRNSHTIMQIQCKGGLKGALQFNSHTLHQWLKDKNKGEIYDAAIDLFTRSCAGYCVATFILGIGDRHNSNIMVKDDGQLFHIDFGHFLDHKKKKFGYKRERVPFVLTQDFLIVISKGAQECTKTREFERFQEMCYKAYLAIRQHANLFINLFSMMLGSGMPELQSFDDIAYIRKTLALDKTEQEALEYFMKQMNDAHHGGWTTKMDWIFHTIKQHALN
PI3 kinase alpha, sequence (P27986 whole entry partner): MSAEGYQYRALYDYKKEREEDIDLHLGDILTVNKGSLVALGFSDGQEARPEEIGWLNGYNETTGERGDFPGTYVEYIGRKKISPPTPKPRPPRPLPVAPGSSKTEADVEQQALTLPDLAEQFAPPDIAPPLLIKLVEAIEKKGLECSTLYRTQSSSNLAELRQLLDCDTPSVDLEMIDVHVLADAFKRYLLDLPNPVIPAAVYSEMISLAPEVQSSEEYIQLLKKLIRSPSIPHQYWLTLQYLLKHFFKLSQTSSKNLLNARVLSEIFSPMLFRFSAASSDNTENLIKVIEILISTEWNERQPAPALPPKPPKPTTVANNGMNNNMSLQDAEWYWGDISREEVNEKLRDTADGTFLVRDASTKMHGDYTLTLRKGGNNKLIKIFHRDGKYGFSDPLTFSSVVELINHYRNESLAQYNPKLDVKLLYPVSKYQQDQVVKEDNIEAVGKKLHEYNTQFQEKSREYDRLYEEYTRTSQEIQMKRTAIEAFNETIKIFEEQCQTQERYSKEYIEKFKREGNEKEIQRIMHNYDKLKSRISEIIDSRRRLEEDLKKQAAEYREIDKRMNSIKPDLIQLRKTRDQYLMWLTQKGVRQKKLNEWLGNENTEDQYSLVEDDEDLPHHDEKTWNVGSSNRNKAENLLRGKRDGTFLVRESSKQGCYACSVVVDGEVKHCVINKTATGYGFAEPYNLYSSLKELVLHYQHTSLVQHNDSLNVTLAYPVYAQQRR
Method in brief: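 Compound in DMSO was mixed with 10 nM PI3 kinase and 5 μg/mL phosphatidylinositol, and the reaction was started with 2 μM ATP. It ran to about 50% ATP depletion and was stopped with KinaseGlo.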

[2] = ovarian cancer cell line A2780, Biological Method 4

SMILES | pEC50 [1, 2] | pIC50 (PI3 kinase alpha; Biological Method 1) | pEC50 ([1]; ovarian cancer cell line A2780) | pIC50 (PI3 kinase alpha)
Nc1cc(C(F)(F)F)c(-c2ccnc(N3CCOCC3)n2)cn1 [Compound 466] | – | – | > 4.60 | > 6.00
N#Cc1cccc(Nc2cc(-c3ccc(N)nc3)nc(N3CCOCC3)n2)c1 [Compound 437] | – | – | > 5.00 | > 6.00
Nc1ccc(-c2cc(Nc3ccnc4c(C(F)(F)F)cccc34)nc(N3CCOCC3)n2)cn1 [Compound 383] | > 5.00 | > 6.00 | – | –
COc1ccc(Nc2cc(-c3cnc(N)nc3C)nc(N3CCOCC3)n2)cn1 [Compound 476] | – | – | > 5.00 | > 6.00
COc1cncc(-c2cc(-c3ccc(N)nc3)nc(N3CCOCC3)n2)c1 [Compound 275] | > 6.00 | > 6.00 | – | –
Cc1c(-c2cnc(N)nc2)nc(N2CCOCC2)nc1-c1cccc(S(C)(=O)=O)c1 [Compound 548] | – | – | > 5.00 | > 6.00
N#Cc1ccc(Nc2cc(-c3cnc(N)cc3C(F)(F)F)nc(N3CCOCC3)n2)cc1 [Compound 283] | > 5.00 | > 6.00 | – | –
Nc1ncc(-c2cc(C(=O)Nc3ccncc3)nc(N3CCOCC3)n2)cn1 [Compound 230] | > 5.00 | > 6.00 | – | –
Nc1cc(Cl)c(-c2cc(Nc3ccncc3C(F)(F)F)nc(N3CCOCC3)n2)cn1 [Compound 219] | > 5.00 | > 6.00 | – | –
Cc1cnc(N2CCOCC2)nc1-c1cnc(N)nc1 [Compound 482] | – | – | > 5.00 | > 6.00
CC(=O)Nc1ccc(Nc2cc(-c3ccc(N)nc3)nc(N3CCOCC3)n2)cc1 [Compound 360] | > 5.00 | > 6.00 | – | –
CC(C)OC(=O)N1CC[C@H](Oc2cc(-c3cnc(N)cc3C(F)(F)F)nc(N3CCOCC3)n2)C1 [Compound 534] | – | – | > 5.00 | > 6.00
CS(=O)(=O)Nc1cccc(Nc2cc(-c3ccc(N)nc3)nc(N3CCOCC3)n2)c1 [Compound 361] | > 5.00 | > 6.00 | – | –
CC(C)Oc1ccnc(Nc2cc(-c3cnc(N)cc3C(F)(F)F)nc(N3CCOCC3)n2)c1 [Compound 432] | – | – | > 5.00 | > 6.00
Nc1ncc(-c2nc(N3CCOCC3)ncc2C(F)(F)F)cn1 [Compound 474] | – | – | > 4.60 | > 6.00
CC(C)(C)OC(=O)N1CCC[C@H](Oc2cc(-c3cnc(N)cc3C(F)(F)F)nc(N3CCOCC3)n2)C1 [Compound 20] | – | – | > 6.00 | > 6.00
Nc1cc(C(F)(F)F)c(-c2cc(Nc3nc(-c4ccccc4)cs3)nc(N3CCOCC3)n2)cn1 [Compound 554] | – | – | > 5.00 | > 6.00
Nc1ccc(-c2cc(Nc3cc(C(F)(F)F)ccn3)nc(N3CCOCC3)n2)cn1 [Compound 350] | > 4.60 | > 6.00 | – | –
Nc1ccc(-c2cc(Nc3cnc4ccc(O)cc4c3)nc(N3CCOCC3)n2)cn1 [Compound 367] | > 5.00 | > 6.00 | – | –
Nc1cc(C(F)(F)F)c(-c2cc(Nc3ccncc3)nc(N3CCOCC3)n2)cn1 [Compound 447] | – | – | > 4.60 | > 6.00
Nc1ccc(-c2cc(Nc3ccc4ccccc4n3)nc(N3CCOCC3)n2)cn1 [Compound 438] | – | – | > 5.00 | > 6.00
Nc1ccc(-c2cc(Nc3ccc(OC(CO)CO)nc3)nc(N3CCOCC3)n2)cn1 [Compound 271] | > 4.60 | > 6.00 | – | –
CCN(CC)C(=O)Cc1csc(Nc2cc(-c3cnc(N)cc3C(F)(F)F)nc(N3CCOCC3)n2)n1 [Compound 218] | > 5.00 | > 6.00 | – | –
CN1CCN(C(=O)c2cnc(N3CCOCC3)nc2-c2cnc(N)nc2)CC1 [Compound 428] | – | – | > 4.60 | > 5.00
CC(=O)Nc1cccc(Nc2cc(-c3ccc(N)nc3)nc(N3CCOCC3)n2)c1 [Compound 363] | > 5.00 | > 6.00 | – | –
N#Cc1ccccc1Nc1cc(-c2cnc(N)nc2)nc(N2CCOCC2)n1 [Compound 449] | – | – | > 5.00 | > 6.00

The remaining lines, values ahead:

pEC50 [1, 2] | pIC50 (PI3 kinase alpha; Biological Method 1) | pEC50 ([1]; ovarian cancer cell line A2780) | pIC50 (PI3 kinase alpha) | SMILES
> 4.60 | > 6.00 | – | – | Nc1cc(C(F)(F)F)c(-c2cc(NC3CCOCC3)nc(N3CCOCC3)n2)cn1 [Compound 322]
> 4.60 | > 6.00 | – | – | Nc1cc(C(F)(F)F)c(-c2cc(N3CCOC(C(=O)O)C3)nc(N3CCOCC3)n2)cn1 (centres unmarked) [Compound 333]
– | – | > 5.00 | > 6.00 | CC(=O)N1CCC[C@H](Oc2cc(-c3cnc(N)nc3N)nc(N3CCOCC3)n2)C1 [Compound 529]
> 5.00 | > 6.00 | – | – | Nc1ccc(-c2cc(-c3cn[nH]c3)nc(N3CCOCC3)n2)cn1 [Compound 248]
– | – | > 6.00 | > 6.00 | Nc1cc(C(F)(F)F)c(-c2cc(N3CCN(c4ccccc4)C3=O)nc(N3CCOCC3)n2)cn1 [Compound 18]
> 4.60 | > 6.00 | – | – | Nc1cc(Cl)c(-c2cc(OC3CCOCC3)nc(N3CCOCC3)n2)cn1 [Compound 328]
> 4.60 | > 6.00 | – | – | Nc1ncc(-c2cc(N3CCOC(c4ccccc4)C3)nc(N3CCOCC3)n2)c(C(F)(F)F)n1 (centres unmarked) [Compound 343]
– | – | > 5.00 | > 6.00 | CC(C)OC(=O)N1CCC(Oc2cc(-c3cnc(N)cc3C(F)(F)F)nc(N3CCOCC3)n2)CC1 [Compound 460]
> 5.00 | > 6.00 | – | – | Nc1ccc(-c2cc(Sc3ccncc3)nc(N3CCOCC3)n2)cn1 [Compound 294]
> 5.00 | > 6.00 | – | – | CN1CCC(Oc2ccc(-c3cc(-c4cnc(N)nc4)nc(N4CCOCC4)n3)cn2)CC1 [Compound 277]
> 5.00 | > 6.00 | – | – | Nc1ccc(-c2cc(-c3ccc(N)nc3)nc(N3CCOCC3)n2)cn1 [Compound 245]
– | – | > 5.00 | > 6.00 | N#Cc1cc(-c2cnc(N)nc2C(F)(F)F)nc(N2CCOCC2)n1 [Compound 465]
> 5.00 | > 6.00 | – | – | Nc1cc(C(F)(F)F)c(-c2cc(Nc3ccc(OC4CCOCC4)nc3)nc(N3CCOCC3)n2)cn1 [Compound 267]
> 4.60 | > 6.00 | – | – | CN(C)C(=O)C1CN(c2cc(-c3cnc(N)cc3C(F)(F)F)nc(N3CCOCC3)n2)CCO1 (centres unmarked) [Compound 326]
> 4.60 | > 6.00 | – | – | Nc1cc(C(F)(F)F)c(-c2cc(N3CCS(=O)(=O)CC3)nc(N3CCOCC3)n2)cn1 [Compound 331]
– | – | > 5.00 | > 6.00 | Nc1ncc(-c2cc(O[C@@H]3CCOC3)nc(N3CCOCC3)n2)c(C(F)(F)F)n1 [Compound 531]
– | – | > 5.00 | > 6.00 | Nc1ccc(-c2cc(N3CCOCC3)nc(N3CCOCC3)n2)c(=O)[nH]1 [Compound 551]
– | – | > 5.00 | > 6.00 | Nc1ncc(-c2cc(O[C@H]3CCCN(C(=O)c4ccc(F)cc4)C3)nc(N3CCOCC3)n2)c(N)n1 [Compound 528]
– | – | > 5.00 | > 6.00 | Nc1ncc(-c2cc(NC3CCCCC3)nc(N3CCOCC3)n2)cn1 [Compound 405]
> 4.60 | > 6.00 | – | – | Nc1cc(C(F)(F)F)c(-c2cc(Nc3cccc(CN4CCOCC4)c3)nc(N3CCOCC3)n2)cn1 [Compound 314]
> 4.60 | > 6.00 | – | – | Nc1cc(C(F)(F)F)c(-c2nc(N3CCOCC3)nc(N3CCOCC3)c2F)cn1 [Compound 313]
– | – | > 5.00 | > 6.00 | CC(C)OC(=O)N1CCC[C@@H](Oc2cc(-c3cnc(N)nc3N)nc(N3CCOCC3)n2)C1 [Compound 527]
> 5.00 | > 6.00 | – | – | CC(=O)N1CCc2ccc(Nc3cc(-c4ccc(N)nc4)nc(N4CCOCC4)n3)cc21 [Compound 356]
